Test results from US9434711B2 (Janssen Pharmaceutica, NV, priority 2007, dated 2016).

Molecular target: canine TRPM8 (Canis lupus familiaris, UniProt Q1A7N1)
Assay: In Vitro Canine TRPM8 Functional Assay (Ca2+ fluorescence, icilin activation)
Type: cell-based
Settings: for IC50: HEK293 cells stably expressing canine TRPM8, icilin activation, eight-point dose-response, read-out: IC50; for inhibition at 0.2 µM: read-out: % Inh @ 0.2
Procedure, shortened: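 Eight-point dose-response curves, each point averaging quadruplicate wells, gave EC50 or IC50. Canine TRPM8-expressing HEK293 cells, dye-loaded (Calcium 3), were pre-exposed 5 min to compound, then challenged with icilin at roughly EC80; intracellular Ca2+ read by FLIPR or FDSS fluorescence.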

[1] = compound at 0.2 μM, canine TRPM8, icilin activation

Chain of canine TRPM8 (Q1A7N1 1-1104): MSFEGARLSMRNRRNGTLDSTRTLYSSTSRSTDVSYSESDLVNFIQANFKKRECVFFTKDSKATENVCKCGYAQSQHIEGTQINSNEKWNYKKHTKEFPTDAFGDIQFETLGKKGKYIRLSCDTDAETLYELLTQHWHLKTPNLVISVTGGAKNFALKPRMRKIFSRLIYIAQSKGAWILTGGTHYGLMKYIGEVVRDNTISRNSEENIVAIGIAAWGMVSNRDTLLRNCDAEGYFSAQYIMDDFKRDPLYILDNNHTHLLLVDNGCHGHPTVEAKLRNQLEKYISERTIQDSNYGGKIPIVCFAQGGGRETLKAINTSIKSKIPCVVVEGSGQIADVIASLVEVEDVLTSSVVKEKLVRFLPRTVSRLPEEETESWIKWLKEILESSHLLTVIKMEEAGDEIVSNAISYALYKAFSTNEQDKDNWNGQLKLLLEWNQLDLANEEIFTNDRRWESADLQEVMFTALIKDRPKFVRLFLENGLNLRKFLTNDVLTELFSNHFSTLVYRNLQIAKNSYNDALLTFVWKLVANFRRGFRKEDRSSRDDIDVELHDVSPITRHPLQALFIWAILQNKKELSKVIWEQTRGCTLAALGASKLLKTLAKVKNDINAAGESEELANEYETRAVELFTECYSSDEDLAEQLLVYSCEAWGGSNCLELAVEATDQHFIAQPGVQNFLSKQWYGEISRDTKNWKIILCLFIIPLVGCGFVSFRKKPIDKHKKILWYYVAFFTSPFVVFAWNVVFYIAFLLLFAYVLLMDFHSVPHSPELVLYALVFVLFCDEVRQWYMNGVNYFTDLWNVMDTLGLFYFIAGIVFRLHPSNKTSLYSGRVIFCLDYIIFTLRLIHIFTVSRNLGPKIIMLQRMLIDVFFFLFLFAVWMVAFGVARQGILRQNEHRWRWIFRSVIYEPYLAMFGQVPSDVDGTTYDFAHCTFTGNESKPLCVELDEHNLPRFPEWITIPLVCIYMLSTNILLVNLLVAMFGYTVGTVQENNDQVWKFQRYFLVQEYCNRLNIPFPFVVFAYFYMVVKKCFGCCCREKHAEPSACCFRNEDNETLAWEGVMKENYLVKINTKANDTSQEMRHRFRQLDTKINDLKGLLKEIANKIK

Row | SMILES | IC50 | inhibition at 0.2 µM [1] | % Inh @ 0.2 (μM) [1]
1 | Cc1c(N(Cc2cccc(OC(F)(F)F)c2)S(=O)(=O)CCCBr)sc2ccccc12 [Compound 769, N-(3-Methyl-benzo[b]thiophen-2-yl)-N-(3-trifluoromethoxy-benzyl)-3-bromo-propane-1-sulfonamide] | 44 nM | 85% | –
2 | Cc1c(N(Cc2cccc(OC(F)(F)F)c2)S(=O)(=O)C2CC2)sc2ccccc12 [Compound 770, N-(3-Methyl-benzo[b]thiophen-2-yl)-N-(3-trifluoromethoxy-benzyl)-cyclopropanesulfonamide] | 7.2 nM | 95% | –
3 | Cc1c(N(Cc2ccc(F)c(C(F)(F)F)c2)S(=O)(=O)CCCCBr)sc2ccccc12 [Compound 771, N-(4-Fluoro-3-trifluoromethyl-benzyl)-N-(3-methyl-benzo[b]thiophen-2-yl)-4-bromo-butane-1-sulfonamide] | 7.2 nM | 96% | –
4 | CC(=O)c1c(N(Cc2ccc(OC(F)(F)F)cc2)S(=O)(=O)c2ccc(C#N)cc2)sc2ccccc12 [Compound 772, N-(3-Acetyl-benzo[b]thiophen-2-yl)-N-(4-trifluoromethoxy-benzyl)-4-cyano-benzenesulfonamide] | 5.7 nM | 95% | –
5 | CC(=O)c1c(N(CCCCC(F)(F)F)S(=O)(=O)c2ccc(C#N)cc2)sc2ccccc12 [Compound 773, N-(3-Acetyl-benzo[b]thiophen-2-yl)-N-(5,5,5-trifluoro-pentyl)-4-cyano-benzenesulfonamide] | 16.7 nM | 94% | –
6 | Cc1c(N(Cc2ccc(OC(F)(F)F)cc2)S(=O)(=O)c2ccc(C(=O)O)c(F)c2)sc2ccccc12 [Compound 774, N-(3-Methyl-benzo[b]thiophen-2-yl)-N-(4-trifluoromethoxy-benzyl)-3-fluoro-4-carboxy-benzenesulfonamide] | 1.3 nM | 95% | –
7 | Cc1c(N(Cc2ccc(F)c(C(F)(F)F)c2)S(=O)(=O)c2ccc(C(=O)O)c(F)c2)sc2ccccc12 [Compound 775, N-(3-Methyl-benzo[b]thiophen-2-yl)-N-(4-fluoro-3-trifluoromethyl-benzyl)-3-fluoro-4-carboxy-benzenesulfonamide] | 1.6 nM | 95% | –
8 | CCS(=O)(=O)N(Cc1cccc(OC)c1F)c1sc2ccccc2c1C(C)(C)O [Compound 776, N-(2-Fluoro-3-methoxy-benzyl)-N-[3-(1-hydroxy-1-methyl-ethyl)-benzo[b]thiophen-2-yl]-ethanesulfonamide] | 6.7 nM | 95% | –
9 | Cc1c(N(CCC2CC2)S(=O)(=O)c2ccc(C(=O)N3CCN(C)CC3)cc2)sc2ccccc12 [Compound 777, N-(2-Cyclopropyl-ethyl)-N-(3-methyl-benzo[b]thiophen-2-yl)-4-(4-methyl-piperazine-1-carbonyl)-benzenesulfonamide] | – | 56% | –
10 | Cc1c(N(Cc2cccc(OC(F)(F)F)c2)S(=O)(=O)CCCn2ccnc2)sc2ccccc12 [Compound 778, N-(3-Methyl-benzo[b]thiophen-2-yl)-N-(3-trifluoromethoxy-benzyl)-3-imidazol-1-yl-propane-1-sulfonamide] | 107 nM | 87% | –
11 | Cc1c(N(Cc2ccc(F)c(C(F)(F)F)c2)S(=O)(=O)CCCCn2ccnc2)sc2ccccc12 [Compound 779, N-(4-Fluoro-3-trifluoromethyl-benzyl)-N-(3-methyl-benzo[b]thiophen-2-yl)-4-(imidazol-1-yl)-butane-1-sulfonamide] | 48.7 nM | 79% | –
12 | CS(=O)(=O)Nc1ccc(S(=O)(=O)N(Cc2ccc(F)c(C(F)(F)F)c2)c2sc3ccccc3c2Cl)c(O)c1 [Compound 780, N-(3-Chloro-benzo[b]thiophen-2-yl)-N-(4-fluoro-3-trifluoromethyl-benzyl)-2-hydroxy-4-methanesulfonylamino-benzenesulfonamide] | 145 nM | 72% | –
13 | CC(C)(O)c1c(N(Cc2ccc(OC(F)(F)F)cc2)S(=O)(=O)c2ccc(C(=O)[O-])cc2)sc2ccccc12.[Na+] [Compound 781, Sodium, N-(3-(1-Hydroxy-1-methyl-ethyl)-benzo[b]thiophen-2-yl)-N-(4-trifluoromethoxy)benzyl-4-carboxy-benzenesulfonamide] | 3 nM | – | 102%
14 | Cc1c(N(CCC2CC2)S(=O)(=O)c2ccc(C(=O)N[C@H]3CCNC3)cc2)sc2ccccc12 [Compound 782, (S)-4-[(2-Cyclopropyl-ethyl)-(3-methyl-benzo[b]thiophen-2-yl)-sulfamoyl]-N-pyrrolidin-3-yl-benzamide] | – | 33% | –
15 | Cc1c(N(CCC2CC2)S(=O)(=O)c2ccc(C(=O)N[C@@H]3CCNC3)cc2)sc2ccccc12 [Compound 783, (R)-4-[(2-Cyclopropyl-ethyl)-(3-methyl-benzo[b]thiophen-2-yl)-sulfamoyl]-N-pyrrolidin-3-yl-benzamide] | – | 38% | –

Continued, in another order:

Row | IC50 | inhibition at 0.2 µM [1] | SMILES | % Inh @ 0.2 (μM) [1]
16 | 3.3 nM | 102% | Cc1c(N(Cc2ccc(F)c(C(F)(F)F)c2)S(=O)(=O)c2ccc(-c3nsc(=O)[nH]3)cc2)sc2ccccc12 [Compound 784, N-(3-Methyl-benzo[b]thiophen-2-yl)-N-(4-fluoro-3-trifluoromethyl-benzyl)-4-(5-oxo-4,5-dihydro-[1,2,4]thiadiazol-3-yl)-benzenesulfonamide] | –
17 | 2.2 nM | 102% | Cc1c(N(Cc2ccc(OC(F)(F)F)cc2)S(=O)(=O)c2ccc(-c3nnn[nH]3)cc2)sc2ccccc12 [Compound 785, N-(3-Methyl-benzo[b]thiophen-2-yl)-N-(4-trifluoromethoxy-benzyl)-4-(1H-tetrazol-5-yl)-benzenesulfonamide] | –
18 | 14.9 nM | 102% | Cc1c(N(CCCCC(F)(F)F)S(=O)(=O)c2ccc(N(C)C)nc2)sc2ccccc12 [Compound 787] | –
19 | 25.9 nM | – | Cc1c(N(CCCCC(F)(F)F)S(=O)(=O)c2cnccc2N2CCOCC2)sc2ccccc12 [Compound 788, N-(3-Methyl-benzo[b]thiophen-2-yl)-N-(5,5,5-trifluoro-pentyl)-4-morpholino-3-pyridyl-sulfonamide] | –
20 | – | 100% | Cc1c(N(CCCCC(F)(F)F)S(=O)(=O)c2ccc(N3CCOCC3)nc2)sc2ccccc12 [Compound 788] | –
21 | 11.7 nM | 102% | Cc1c(N(Cc2ccc(OC(F)(F)F)cc2)S(=O)(=O)c2ccc(N(C)C)nc2)sc2ccccc12 [Compound 789] | –
22 | 22 nM | 101% | Cc1c(N(Cc2ccc(OC(F)(F)F)cc2)S(=O)(=O)c2ccc(N3CCOCC3)nc2)sc2ccccc12 [Compound 790] | –
23 | 23.1 nM | 95% | COC(=O)CS(=O)(=O)N(Cc1ccc(F)c(C(F)(F)F)c1)c1sc2ccccc2c1C [Compound 791, N-(4-Fluoro-3-trifluoromethyl-benzyl)-N-(3-methyl-benzo[b]thiophen-2-yl)-carbomethoxy-methanesulfonamide] | –
24 | – | 23% | Cc1c(N(Cc2ccc(F)c(C(F)(F)F)c2)S(=O)(=O)CC(=O)O)sc2ccccc12 [Compound 792, N-(4-Fluoro-3-trifluoromethyl-benzyl)-N-(3-methyl-benzo[b]thiophen-2-yl)-carboxy-methanesulfonamide] | –
